Laboratory results: patent US11274332B2, “Methods of administering 3,4-diaminopyridine” (SERB SA, priority 2011, dated 2022)

Assay: Food-effect crossover study, adverse events after single 20 mg amifampridine phosphate in healthy subjects (Examples 10, 11)
Type: in vivo
Experimental: This was a randomized, open-label, 2-treatment, 2-period crossover study with 44 completed subjects to assess the safety, tolerability, and the effect of food on the relative bioavailability of a single dose of amifampridine phosphate.
Safety was evaluated for all subjects who take at least one dose of 3,4-DAP. Safety was evaluated by recording the incidence of adverse events (AEs), physical examination, vital signs, concomitant medications, clinical laboratory assessments, and 12-lead electrocardiogram (ECG).
Analysis for the following safety parameters was carried out on the Safety Population: AEs which included all AEs, AEs by severity, drug-related AEs, deaths, SAEs, AEs leading to study discontinuation, and most frequent AEs, standard clinical laboratory tests, vital signs, ECG measurements, routine physical examinations, and prior and concomitant medications. The cut-off for frequency of AEs reported was determined based on the data. No formal statistical testing was performed for the safety analyses; only descriptive statistics were provided. Appropriate descriptive statistics for the safety data were determined using SAS Version 9.2.
AEs were coded according to the Medical Dictionary for Regulatory Activities (MedDRA; Version 13.0). […] The occurrence of AEs was assessed continuously from the time the subject signed the VID and consent. The reporting period for non-serious AEs was from the first dose to the final study visit. The investigator determined the severity of each event and the relationship of an AE to the IP and recorded it on the source documents and AE CRF. The nature, time of onset, duration, severity, and relationship to study drug was documented, including documentation of investigator assessment and review. All events were assessed to determine if the AE was serious.
The Investigator determined the severity of each event and the event was recorded on the source documents and AE CRF. A coding of “mild” meant there was no limitation of usual activities, “moderate” meant there was some limitation of usual activities, “severe” meant there was an inability to carry out usual activities.
The reporting period for AEs that met the criteria of an SAE began from the time of signing the VID and consent form through follow-up or early termination. […] Clinical Laboratory Assessments

Nc1ccncc1N.O=P(O)(O)O [amifampridine phosphate, 3,4-diaminopyridine phosphate]
Paraesthesia, drug-related AE: subjects (Male N=31): 6
Possibly or probably related AEs, Mild: % of subjects (Male N=31): 58%
Possibly or probably related AEs, Mild: events (Male N=31): 51
Possibly or probably related AEs, Mild: subjects (Male N=31): 18
Possibly or probably related AEs, Moderate: % of subjects (Male N=31): (0%) [0]
Possibly or probably related AEs, Moderate: events (Male N=31): (0%) [0]
Possibly or probably related AEs, Moderate: subjects (Male N=31): 0
Possibly or probably related AEs, Severe: % of subjects (Male N=31): (0%) [0]
Possibly or probably related AEs, Severe: events (Male N=31): (0%) [0]
Possibly or probably related AEs, Severe: subjects (Male N=31): 0
Possibly or probably related AEs, Total: % of subjects (Male N=31): 58%
Possibly or probably related AEs, Total: events (Male N=31): 51
Possibly or probably related AEs, Total: subjects (Male N=31): 18
Serious adverse events: % of subjects (Male N=31): (0%) [0]
Serious adverse events: events (Male N=31): (0%) [0]
Serious adverse events: subjects (Male N=31): 0
Skin and Subcutaneous Tissue Disorders Total, drug-related AE: % of subjects (Male N=31): 3%
Skin and Subcutaneous Tissue Disorders Total, drug-related AE: events (Male N=31): 1
Skin and Subcutaneous Tissue Disorders Total, drug-related AE: subjects (Male N=31): 1
Vascular Disorders Total, drug-related AE: % of subjects (Male N=31): (0%) [0]
Vascular Disorders Total, drug-related AE: events (Male N=31): (0%) [0]
Vascular Disorders Total, drug-related AE: subjects (Male N=31): 0
paraesthesias among the 93 drug-related AEs: % of events (Overall): 54%
paraesthesias among the 93 drug-related AEs: events (Overall): 50
Abdominal Pain Upper, drug-related AE: % of subjects (Overall N=47): 4%
Abdominal Pain Upper, drug-related AE: events (Overall N=47): 2
Abdominal Pain Upper, drug-related AE: subjects (Overall N=47): 2
Abdominal Pain, drug-related AE: % of subjects (Overall N=47): 6%
Abdominal Pain, drug-related AE: events (Overall N=47): 3
Abdominal Pain, drug-related AE: subjects (Overall N=47): 3
Abdominal Tenderness, drug-related AE: % of subjects (Overall N=47): 2%
Abdominal Tenderness, drug-related AE: events (Overall N=47): 1
Abdominal Tenderness, drug-related AE: subjects (Overall N=47): 1
Acne, drug-related AE: % of subjects (Overall N=47): 2%
Acne, drug-related AE: events (Overall N=47): 1
Acne, drug-related AE: subjects (Overall N=47): 1
All treatment emergent AEs, Mild: % of subjects (Overall N=47): 64%
All treatment emergent AEs, Mild: events (Overall N=47): 98
All treatment emergent AEs, Mild: subjects (Overall N=47): 30
All treatment emergent AEs, Moderate: % of subjects (Overall N=47): 4%
All treatment emergent AEs, Moderate: events (Overall N=47): 2
All treatment emergent AEs, Moderate: subjects (Overall N=47): 2
All treatment emergent AEs, Severe: % of subjects (Overall N=47): 2%
All treatment emergent AEs, Severe: events (Overall N=47): 1
All treatment emergent AEs, Severe: subjects (Overall N=47): 1
All treatment emergent AEs, Total: events (Overall N=47): 101
All treatment emergent AEs, Total: subjects (Overall N=47): 31
Constipation, drug-related AE: % of subjects (Overall N=47): 2%
Constipation, drug-related AE: events (Overall N=47): 1
Constipation, drug-related AE: subjects (Overall N=47): 1
Diarrhoea, drug-related AE: % of subjects (Overall N=47): 2%
Diarrhoea, drug-related AE: events (Overall N=47): 1
Diarrhoea, drug-related AE: subjects (Overall N=47): 1
Discontinued due to adverse events: % of subjects (Overall N=47): 2%
Discontinued due to adverse events: events (Overall N=47): 1
Discontinued due to adverse events: subjects (Overall N=47): 1
Dizziness, drug-related AE: % of subjects (Overall N=47): 11%
Dizziness, drug-related AE: events (Overall N=47): 7
Dizziness, drug-related AE: subjects (Overall N=47): 5
Dysgeusia, drug-related AE: % of subjects (Overall N=47): 4%
Dysgeusia, drug-related AE: events (Overall N=47): 3
Dysgeusia, drug-related AE: subjects (Overall N=47): 2
Fatigue, drug-related AE: % of subjects (Overall N=47): 9%
Fatigue, drug-related AE: events (Overall N=47): 4
Fatigue, drug-related AE: subjects (Overall N=47): 4
Feeling Hot, drug-related AE: % of subjects (Overall N=47): 2%
Feeling Hot, drug-related AE: events (Overall N=47): 1
Feeling Hot, drug-related AE: subjects (Overall N=47): 1
Flushing, drug-related AE: % of subjects (Overall N=47): 2%
Flushing, drug-related AE: events (Overall N=47): 1
Flushing, drug-related AE: subjects (Overall N=47): 1
Gastrointestinal Disorders Total, drug-related AE: % of subjects (Overall N=47): 19%
Gastrointestinal Disorders Total, drug-related AE: events (Overall N=47): 12
Gastrointestinal Disorders Total, drug-related AE: subjects (Overall N=47): 9
General Disorders and Administration Site Conditions Total, drug-related AE: % of subjects (Overall N=47): 11%
General Disorders and Administration Site Conditions Total, drug-related AE: events (Overall N=47): 5
General Disorders and Administration Site Conditions Total, drug-related AE: subjects (Overall N=47): 5
Headache, drug-related AE: % of subjects (Overall N=47): 11%
Headache, drug-related AE: events (Overall N=47): 5
Headache, drug-related AE: subjects (Overall N=47): 5
Hypoaesthesia Facial, drug-related AE: % of subjects (Overall N=47): 2%
Hypoaesthesia Facial, drug-related AE: events (Overall N=47): 1
Hypoaesthesia Facial, drug-related AE: subjects (Overall N=47): 1
Hypoaesthesia Oral, drug-related AE: % of subjects (Overall N=47): 11%
Hypoaesthesia Oral, drug-related AE: events (Overall N=47): 6
Hypoaesthesia Oral, drug-related AE: subjects (Overall N=47): 5
Hypoaesthesia, drug-related AE: % of subjects (Overall N=47): 4%
Hypoaesthesia, drug-related AE: events (Overall N=47): 2
Hypoaesthesia, drug-related AE: subjects (Overall N=47): 2
Nausea, drug-related AE: % of subjects (Overall N=47): 9%
Nausea, drug-related AE: events (Overall N=47): 4
Nausea, drug-related AE: subjects (Overall N=47): 4
Nervous System Disorders Total, drug-related AE: % of subjects (Overall N=47): 57%
Nervous System Disorders Total, drug-related AE: events (Overall N=47): 74
Nervous System Disorders Total, drug-related AE: subjects (Overall N=47): 27
Paraesthesia Oral, drug-related AE: % of subjects (Overall N=47): 43%
Paraesthesia Oral, drug-related AE: events (Overall N=47): 30
Paraesthesia Oral, drug-related AE: subjects (Overall N=47): 20
Paraesthesia, drug-related AE: % of subjects (Overall N=47): 26%
Paraesthesia, drug-related AE: events (Overall N=47): 20
Paraesthesia, drug-related AE: subjects (Overall N=47): 12
Possibly or probably related AEs, Mild: % of subjects (Overall N=47): 64%
Possibly or probably related AEs, Mild: events (Overall N=47): 92
Possibly or probably related AEs, Mild: subjects (Overall N=47): 30
Possibly or probably related AEs, Moderate: % of subjects (Overall N=47): 2%
Possibly or probably related AEs, Moderate: events (Overall N=47): 1
Possibly or probably related AEs, Moderate: subjects (Overall N=47): 1
Possibly or probably related AEs, Severe: % of subjects (Overall N=47): (0%) [0]
Possibly or probably related AEs, Severe: events (Overall N=47): (0%) [0]
Possibly or probably related AEs, Severe: subjects (Overall N=47): 0
Possibly or probably related AEs, Total: % of subjects (Overall N=47): 64%
Possibly or probably related AEs, Total: events (Overall N=47): 93
Possibly or probably related AEs, Total: subjects (Overall N=47): 30
Serious adverse events: % of subjects (Overall N=47): (0%) [0]
Serious adverse events: events (Overall N=47): (0%) [0]
Serious adverse events: subjects (Overall N=47): 0
Skin and Subcutaneous Tissue Disorders Total, drug-related AE: % of subjects (Overall N=47): 2%
Skin and Subcutaneous Tissue Disorders Total, drug-related AE: events (Overall N=47): 1
Skin and Subcutaneous Tissue Disorders Total, drug-related AE: subjects (Overall N=47): 1
Vascular Disorders Total, drug-related AE: % of subjects (Overall N=47): 2%
Vascular Disorders Total, drug-related AE: events (Overall N=47): 1
Vascular Disorders Total, drug-related AE: subjects (Overall N=47): 1
safety and tolerability (single oral 20 mg, fed and fasted): safe and well tolerated
deaths or SAEs (whole study): no deaths or SAEs
